Measurements taken from US20220110889A1, “R-KETAMINE AND DERIVATIVE THEREOF AS PROPHYLACTIC OR THERAPEUTIC AGENT FOR NEURODEV[…]” (National University Corporation Chiba University, priority 2018, published 2022).
“Also recorded” adds a separate entry of the source.

Key:
[1] = system: mice treated with PCP serving as animal models of schizophrenia; test: Novel object recognition test (NORT) in mice repeatedly administered with PCP (animal model of schizophrenia); assay type: in vivo; settings: for cognitive function in NORT (ratio of time to find the novel object relative to time to find the two objects): male ICR mice, PCP 10 mg/kg s.c. for ten days, test drug 10 mg/kg intraperitoneally on days 15, 18, 22, 25, vs PCP+physiological saline
Method: The creation of model animals of a cognitive impairment of schizophrenia and drug administration were specifically carried out as described below (FIG. 1). For the mice, male ICR mice (8 weeks old, Japan SLC Inc., Hamamatsu, Japan) were purchased. The mice were allowed to freely ingest water and feed. On the first day of testing, physiological saline (10 mL/kg bodyweight) or PCP (10 mg/kg bodyweight) was subcutaneously administered once a day for ten days (from the first day of testing to the fifth day of testing and from the eighth day of testing to the twelfth day of testing: no administration on the sixth and seventh days of testing). On the fifteenth day of testing, the eighteenth day of testing, the twenty-second day of testing, and the twenty-fifth day of testing, R-ketamine (10 mg/kg bodyweight) or a medium (10 mL/kg of physiological saline) was intraperitoneally administered. […] The novel object recognition test (NORT: novel object recognition test) is a system used to evaluate cognitive functions. The NORT was carried out according to a previous report (Hashimoto et al. Eur. J. Pharmacol. 2005; 519 (1-2): 114-117). From the twenty-sixth day to the twenty-eighth day of testing, acclimation to a NORT apparatus (50.8×50.8×25.4 cm) was performed for 10 minutes per day. On the twenty-ninth day of testing, two objects of different shapes and colors were placed 35.5 cm apart in the NORT apparatus, and an amount of time to find each object was measured. A training session (10 minutes) was carried out, and on the following day, the thirtieth day of testing, a test session (5 minutes) was carried out (FIG. 1). In the test session on the following day, one object was replaced with another, new object (novel object). An amount of time to find the two objects was measured, and in the test session on the second day, a ratio of an amount of time to find the novel object relative to the amount of time to find the two objects was calculated. On the day following the end of behavior testing, a brain region (frontal cortex, hippocampus) of the mice was extracted, and the brain tissue was stored in a freezer. Brain-derived neurotrophic factor (BDNF: brain-derived neurotrophic factor); TrkB, which is a BDNF receptor; and phosphorylated TrkB in the brain tissue were quantified by western blotting (FIG. 3).
The effect of S-ketamine was examined according to the method above. On the first day of testing, physiological saline (10 mL/kg bodyweight) or PCP (10 mg/kg bodyweight) was subcutaneously administered once a day for ten days (from the first day of testing to the fifth day of testing and from the eighth day of testing to the twelfth day of testing: no administration on the sixth and seventh days of testing). […]

NMDA receptors = settings: non-patent literature 11; cited from earlier work
BDNF-TrkB system = test: Western blotting of BDNF, TrkB and phosphorylated TrkB in frontal cortex and hippocampus of PCP-treated mice; assay type: in vivo; settings: R-ketamine 10 mg/kg i.p., brain extracted after behavior testing
Method: The creation of model animals of a cognitive impairment of schizophrenia and drug administration were specifically carried out as described below (FIG. 1). For the mice, male ICR mice (8 weeks old, Japan SLC Inc., Hamamatsu, Japan) were purchased. The mice were allowed to freely ingest water and feed. On the first day of testing, physiological saline (10 mL/kg bodyweight) or PCP (10 mg/kg bodyweight) was subcutaneously administered once a day for ten days (from the first day of testing to the fifth day of testing and from the eighth day of testing to the twelfth day of testing: no administration on the sixth and seventh days of testing). On the fifteenth day of testing, the eighteenth day of testing, the twenty-second day of testing, and the twenty-fifth day of testing, R-ketamine (10 mg/kg bodyweight) or a medium (10 mL/kg of physiological saline) was intraperitoneally administered. […] On the day following the end of behavior testing, a brain region (frontal cortex, hippocampus) of the mice was extracted, and the brain tissue was stored in a freezer. Brain-derived neurotrophic factor (BDNF: brain-derived neurotrophic factor); TrkB, which is a BDNF receptor; and phosphorylated TrkB in the brain tissue were quantified by western blotting (FIG. 3). […]

[2] = system: baby mice (male) born from pregnant mice administered with Poly (I:C); test: Novel object recognition test in offspring of pregnant mice administered with Poly (I:C) (maternal immune activation model); assay type: in vivo; settings: male offspring of Poly (I:C) 5 mg/kg dams; R-ketamine 10 mg/kg i.p. twice a week, four weeks (weeks 4 to 8 after birth); NORT at 10 weeks old or thereafter
Method: The creation of model animals of a neurodevelopmental disorder such as schizophrenia or autism spectrum disorder (models of maternal immune activation) and drug administration were specifically carried out as described below (FIG. 5). For the mice, pregnant ddY mice (8 to 10 weeks old, Japan SLC Inc., Hamamatsu, Japan) were purchased. The mice were allowed to freely ingest water and feed. Physiological saline (5 mL/kg bodyweight) or Poly (I:C) (Sigma-Aldrich: 5 mg/kg bodyweight) was intraperitoneally administered for six days, from the twelfth day of pregnancy to the seventeenth day of pregnancy, according to previous reports (Han M, et al. Sci Rep 2016; 6:36087. Matsuura A, et al. Sci Rep 2018; 8: 2158. Ma M, et al. Proc Natl Acad Sci USA 2019; 116: 7083-7088). After birth, the mice were raised normally, and at 3 weeks old, only the male mice were weaned and raised. R-ketamine (10 mg/kg bodyweight) or a medium (10 mL/kg of physiological saline) was intraperitoneally administered twice a week for four weeks, from the fourth week after birth to the eighth week after birth. […] From 8 weeks old, these were raised normally. The above NORT was carried out at 10 weeks old or thereafter.
Statistical analysis was carried out by performing a one-way analysis of variance (one-way ANOVA) and subsequently performing Fisher's LSD (Fisher's LSD). […]

[3] = animal testing, non-patent literature 12 to 14; cited from earlier work

SMILES | effect of ANA-12 pretreatment on the therapeutic effect of R-ketamine in NORT ([1]; PCP-treated mice, ANA-12 0.5 mg/kg i.p. 30 minutes before R-ketamine 10 mg/kg i.p.) | cognitive function in NORT (ratio of time to find the novel object relative to time to find the two objects) [1] | affinity toward NMDA receptors relative to R-ketamine (NMDA receptors) | cognitive function in NORT, TrkB role study ([1]; PCP-treated mice, solvent 30 minutes before R-ketamine 10 mg/kg i.p. on days 15, 18, 22, 25) | BDNF protein expression in the frontal cortex and the hippocampus (BDNF-TrkB system) | ratio p-TrkB/TrkB in the frontal cortex and the hippocampus (BDNF-TrkB system) | cognitive impairment at maturity in NORT [2] | side effects (such as drug dependency and an action of inducing a mental illness) compared to S-ketamine [3]
O=C(Nc1ccccc1C(=O)NC1CCCCNC1=O)c1cc2ccccc2s1 (stereo not drawn) [ANA-12, reference compound] | suppressed the therapeutic effect of R-ketamine |  |  |  |  |  |  | 
CN[C@]1(c2ccccc2Cl)CCCCC1=O [S-ketamine, reference compound] |  | did not improve the reduced cognitive function due to PCP administration; also recorded: exhibited no therapeutic effect | stronger affinity toward NMDA receptors; also recorded: about four times higher than R-ketamine |  |  |  |  | 
CN[C@@]1(c2ccccc2Cl)CCCCC1=O [R-ketamine] |  | significantly improved the reduced cognitive function due to PCP administration; also recorded: exhibits a therapeutic effect |  | significantly improved the reduced cognitive function due to PCP administration | significantly improved | significantly improved | suppressed a cognitive impairment at maturity | fewer side effects
